Patent publication US20230087994A1, “TARGETED BIFUNCTIONAL DEGRADERS” (YALE UNIVERSITY, priority 2019, published 2023)
Several values for one entry are separate records, joined by “and”; a condition that tells them apart may be missing. Equal entries are not always repeated.

How the values were obtained:
[1] = system: ASGPR on the surface of immortalized human hepatocyte HepG2 cells; experiment: DNP-GN3-mediated ternary complex formation: association of fluorescently labeled α-DNP antibody with HepG2 cells in suspension; format: cell-based; details: for concentration of DNP-GN3 eliciting half-maximal fluorescence association: bell-shaped response, FIG. 86A
Text: It was investigated whether DNP-GN3 could mediate the formation of a ternary complex between a fluorescently labeled α-DNP antibody and ASGPR on the surface of immortalized human hepatocyte HepG2 cells in suspension. […] The observed bell-shaped response to DNP-GN3 concentration is consistent with the prozone effect commonly observed in systems wherein a ternary complex is formed.

[2] = system: HepG2 cells; experiment: DNP-GN3-mediated endocytosis of fluorescently labeled α-DNP antibody by adherent HepG2 cells; format: cell-based, human
Method: It was next explored whether DNP-GN3 mediates the endocytosis of fluorescently labeled α-DNP antibody.
To explore the cellular mechanism of antibody uptake, cells were treated with chemical inhibitors of several endocytic pathways (FIG. 89).

[3] = system: HepG2 cells; experiment: Subcellular localization of α-DNP antibody endocytosed via DNP-GN3 (microscopy); format: cell-based, human; details: after 12 hours
[4] = system: HepG2 cells; experiment: Western blot of α-DNP antibody degradation in HepG2 cells treated with DNP-GN3; format: cell-based, human; details: anti-Alexa Fluor 488, FIG. 92A
Method: In addition, western blotting with an antibody directed to Alexa Fluor 488 was used to determine if endocytosed fluorescently labeled α-DNP antibodies are degraded in vitro. […] Signal arising from Alexa Fluor 488 in cell lysates was associated with only full-length antibody after two hours of incubation. After six hours, a lower molecular weight fluorophore-associated protein fragment between 37 and 50 kDa began to appear. An additional protein fragment with a molecular weight between 25 and 37 kDa was observed after 24 hours. […] Together with the above immunofluorescence studies showing the colocalization of α-DNP antibody-derived fluorescence with lysosomes, these studies support that α-DNP antibody degradation is mediated by lysosomal proteases. Lysosomal degradation is further consistent with a mechanism dependent on ASGPR.

[5] = Pharmacokinetics of DNP-GN3 in nude mice; format: in vivo; details: 1 mpk
[6] = Tolerability of DNP-GN3 and DNP-OH3 in mice (body weight, AST, ALT); format: in vivo
Method: FIGS. 93A-93C illustrate that DNP-GN3 and DNP-OH3 are not toxic to mice at all tested concentrations. FIG. 93A: mouse body weight following treatment with DNP-GN3 or DNP-OH3. Statistical differences were analyzed by T test. FIG. 93B: levels of aspartate transaminase (AST) in treated mice. Dashed lines represent the normal range. FIG. 93C: levels of alanine transaminase (ALT) in treated mice. Dashed lines represent the normal range.

[7] = system: α-DNP antibody; experiment: Depletion of α-DNP antibody from serum in mice (ELISA); format: in vivo; details: for serum α-DNP antibody levels compared to PBS: initial 200 μg monoclonal antibody, 21 days, nude mice
Method: FIG. 94 illustrates that serum levels of α-DNP antibody decrease more rapidly following repeated treatment with DNP-GN3. Serum antibody levels were measured using an ELISA assay. Each experimental group contained three mice. Statistical differences in experiments involving in vivo depletion of α-DNP antibody were assessed by repeated measures two-way ANOVA with Tukey's tests for post-hoc comparison of simple effects between each of the treatment groups and PBS.
Single doses of DNP-GN3 were also found to be efficacious at mediating α-DNP antibody depletion, albeit less effectively than daily dosing (FIG. 96). […] Therefore, it was concluded that DNP-GN3 is able to mediate the depletion of a monoclonal antibody from serum, and functions across a wide range of target protein concentrations and dosing regimens.
DNP-GN3 was also found to be efficacious in depleting polyclonal α-DNP antibody from serum collected from mice immunized with DNP-keyhole limpet haemocyanin (KLH) (FIG. 97). […] Thus, the small molecule DNP-GN3 is not restricted in function to only monoclonal mouse antibodies, but is also effective at removing polyclonal α-DNP antibodies from circulation in mice.

[8] = system: PC3 cells; experiment: Human prostate cancer PC3 tumor growth in mice; format: in vivo; details: control and comparator arms; FIG. 138
Method: The ability of MIF-GN3 to mediate the depletion of MIF in a therapeutically relevant disease model was investigated. […] An experiment was conducted to determine whether the bifunctional molecule MIF-GN3 can deplete sufficient human MIF from serum to slow PC3 tumor growth. Mice were injected with an aliquot of PC3 cells, and the size of the resultant tumors as well as the levels of human MIF in serum were monitored over five weeks. […] Five weeks after the initial PC3 cell injection, the first of the mice reached maximal tumor size ([…]) and was sacrificed (FIG. 138). […] The decrease in human MIF levels mediated by MIF-GN3 is consistent with a mechanism of action in which MIF-GN3 mediates the depletion and degradation of circulating MIF protein. While the α-MIF antibody would not necessarily be expected to decrease the levels of human MIF, it is possible that the antibody mediates MIF neutralization in a manner which masks its signal as determined by ELISA. Alternatively, the α-MIF antibody may mediate depletion or degradation of huMIF by some endocytic mechanism. Another possible explanation is that the α-MIF antibody decrease serum levels of active human MIF to such an extent at early time points that PC3 cells proliferate much more slowly, and therefore fewer cells are actively secreting human MIF.
Mice were sacrificed when their tumor volumes reached 1000 mm^3. […] At this same time point, less than 25% of the mice in any other arm had survived.

[9] = system: α-DNP antibody; experiment: Depletion of α-DNP antibody from serum in mice (ELISA); format: in vivo; details: i.p.; FIG. 79A

## CC(=O)NC1C(OCCOCCOCCNC(=O)CCOCC(COCCC(=O)NCCOCCOCCOC2OC(CO)C(O)C(O)C2NC(C)=O)(COCCC(=O)NCCOCCOCCOC2OC(CO)C(O)C(O)C2NC(C)=O)NC(=O)CNC(=O)COCCOCCOCCNc2ccc([N+](=O)[O-])cc2[N+](=O)[O-])OC(CO)C(O)C1O (centres unmarked) [DNP-GN3]
[1]; DNP-GN3
  concentration of maximal ternary complex formation: 20 nM and 40 nM
[1]; higher concentration (prozone)
  concentration of DNP-GN3 eliciting half-maximal fluorescence association: 0.12 µM
[1]; lower concentration
  concentration of DNP-GN3 eliciting half-maximal fluorescence association: 0.0074 µM
[2]; FIG. 87A
  intracellular fluorescence of adherent HepG2 cells: dependent on the concentration of both DNP-GN3 and α-DNP antibody
[2]; target protein at 1 nM
  uptake of α-DNP antibody: not effective
[3]; FIG. 91A
  colocalization of endocytosed α-DNP antibody with early endosome marker EEA1: No colocalization
[3]; FIG. 91B
  colocalization of α-DNP antibody with lysosome membrane protein LAMP2: strong colocalization
[4]
  fluorophore accumulation in lysates of HepG2 cells: accumulate fluorophore in a time- and DNP-GN3-dependent manner
[5]
  bioavailability via IP dosing: bioavailable
[5]; IP
  half-life in serum: 40.2 min
  time at which maximal serum concentration is reached: 1 h
[6]; all tested concentrations, FIGS. 93A-93C
  toxicity to mice: not toxic
[6]; up to 100 mpk, FIGS. 93A-93C
  body weight or serum liver enzyme levels, control versus treatment groups: no significant differences
[6]; up to doses of 100 mpk
  tolerability: well-tolerated
[7]; 24 hours after a single dose of 1 mpk (vehicle 24%)
  α-DNP antibody depleted from serum: 52%
[7]; 24 hours after a single dose of 10 mpk (vehicle 24%)
  α-DNP antibody depleted from serum: 34%
[7]; daily 1 mpk
  serum α-DNP antibody levels compared to PBS: significantly reduced
[7]; daily treatment, initial antibody dose 500 μg
  serum α-DNP antibody levels: significant decrease
[7]; daily treatment, mice immunized with DNP-KLH, each time point
  polyclonal α-DNP antibody removed from serum compared to PBS: significantly more polyclonal α-DNP antibody was removed
[7]; single dose of 100 mpk
  α-DNP antibody depletion from serum: Significant depletion
[7]; twice-daily 1 mpk
  serum α-DNP antibody levels compared to PBS: significantly reduced
[8]
  PC3 tumor growth: not found to decrease tumor growth
[9]
  degradation of injected anti-DNP IgG antibodies in mouse serum: can induce degradation
